This is an account of results in publication PMC11876601 (Molecular Systems Biology, 2025).

The subject of one test is ABL1. Particulars: ABL1, 5 cell line mix lysate, Kinobeads ε, ref Reinecke et al. (2023), cited from earlier work.
A further test deals with FGFR1. Also noted: method as in Reinecke et al. (2023). Particulars: FGFR1, 5 cell line mix lysate, Kinobeads ε, ref Reinecke et al. (2023), cited from earlier work.
In a further test the test system is PANC-1. The experiment in a line: cells. The note with it: Homo sapiens, PANC-1, 72 h, read-out: EC50 [nM]. Also noted: ATPlite luminescence viability of PDAC cell lines, 11-dose single-agent curves, 4-parameter fit. A digest of the protocol:
(§1)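 cells (1000 to 5000 per well) seeded 24 h before drug addition in a combination screen at 0.2% final DMSO. Controls were drug-free wells (negative) and 5 µM staurosporine (positive).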

The next test relates to Colo-357 cells. In words: Drug combination viability screen (ATPlite, 72 h). It is filed as cell-based, human. The arrangement: AUC: unit not given beside the values. Particulars: for EC50: Homo sapiens, COLO357. As for the experimental part:
(§2) Cell viability was assessed by measuring ATP levels to indicate metabolic activity.
(§3) Afterward, small amounts were transferred to 384-well intermediate plates (Greiner Bio-One GmbH, Germany). […] For drug combination screening, 1000 to 5000 cells were seeded into 384-well plates (CulturPlate™, Perkin Elmer, MA, USA) using a Multidrop™ Combi Reagent Dispenser (Thermo Scientific, MA, USA) in 50 µl medium per well 24 h prior to drug treatment (seeding densities see Appendix Table S1). […] The final DMSO concentration in each well was 0.2%. […] Eight wells per plate without library drug served as negative controls, and sixteen wells per plate containing 5 µM Staurosporine served as positive controls. Control plates not containing any drug were used to correct for incubation effects, and data quality was assessed by calculation of Z-prime of positive and negative controls according to1 Z-prime=1−3SDpos+3SDneg/[…] where SD is the standard deviation. […] Dose–response curves from the experimental and hypothetical data were compared, and shifts in AUC were used to describe combination effects (AUC∆ = AUChypothetical − AUCexperimental). […] Only combinations with R^2 > 0.8 in both conditions were considered in the synergy analysis.

For the next test, the system named is PANC-1 cells. The experiment in a line: Drug combination viability screen (ATPlite, 72 h). It counts as cell-based, human. Also noted: AUC: unit not given beside the values. How it is done: as §2, §3
On the technique in general: ATP-based viability assays read luminescence as a measure of living cells.

Another test relates to Capan-1 cells. In words: Drug combination viability screen (ATPlite, 72 h). It counts as cell-based, human. The arrangement: AUC: unit not given beside the values; Reponse: unit not given here. Particulars: for EC50: Homo sapiens, CAPAN-1. As for the experimental part:
as §2, §3

The subject of another test is Dan-G. In words: cells. The arrangement: ATPlite luminescence viability of PDAC cell lines, 11-dose single-agent curves, 4-parameter fit. Particulars: 72 h, read-out: EC50 [nM]. A digest of the protocol: as §1
In a further test the test system is FAMPAC. In words: cells. Also noted: ATPlite luminescence viability of PDAC cell lines, 11-dose single-agent curves, 4-parameter fit. The note with it: 72 h, read-out: EC50 [nM]. A digest of the protocol:
as §1

In the next test the test system is Suit2-07. In words: cells. The arrangement: ATPlite luminescence viability of PDAC cell lines, 11-dose single-agent curves, 4-parameter fit. Particulars: 72 h, read-out: EC50 [nM]. A digest of the protocol:
as §1

The subject of another test is HuP-T4. The experiment in a line: cells. Also noted: ATPlite luminescence viability of PDAC cell lines, 11-dose single-agent curves, 4-parameter fit. The note with it: Homo sapiens, HuP-T4, 72 h, read-out: EC50 [nM]. The essentials:
as §1

Where two headings read alike, the source gives them in different places. Some results are limits rather than exact numbers.
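For AUC in this document: area under vehicle-normalized viability curve scaled 0 to 100 percent.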
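For Curve bottom in this document: fraction of vehicle control viability from four-parameter log-logistic fit.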

`COc1cc(N2CCC(N3CCN(C)CC3)CC2)ccc1Nc1ncc(Cl)c(Nc2ccccc2P(C)(C)=O)n1` [Brigatinib]: the EC50 with ABL1 is 3460 nM; in the test on FGFR1, 419 nM. The pKDapp was 5.72 on ABL1 and 6.51 at FGFR1. In addition, the Kd on ABL1 (read-out: KDapp) is 1890 nM; at FGFR1 (read-out: KDapp) it was 308 nM.

In the case of `C[C@]12O[C@H](C[C@]1(O)CO)n1c3ccccc3c3c4c(c5c6ccccc6n2c5c31)CNC4=O` [Lestaurtinib], the EC50 in the test on PANC-1 was over 10000 nM.

For the molecule `Nc1ccn([C@@H]2O[C@H](CO)[C@@H](O)C2(F)F)c(=O)n1` [GEM, Gemcitabine], the ATP luminescence signal in the test with Colo-357 cells (Colo-357, R1, 13.72 nM) was 68560; in the test on Colo-357 cells (Colo-357, R1, 41.15 nM), 61560; in the test with Colo-357 cells (Colo-357, R1, […] nM) it was 70640; in the test with Colo-357 cells (Colo-357, R1, 370.37 nM), 48200; in the test on Colo-357 cells (Colo-357, R1, 1111.11 nM), 53560; in the test on Colo-357 cells (Colo-357, R1, 3333.33 nM), 50680. Also, the ATP luminescence signal in the test with Colo-357 cells (Colo-357, R1, 10000 nM) was 66360; in the test on Colo-357 cells (Colo-357, R2, 13.72 nM), 110000; in the test on Colo-357 cells (Colo-357, R2, 41.15 nM) it was 110560; in the test on Colo-357 cells (Colo-357, R2, […] nM) it was 89840; in the test on Colo-357 cells (Colo-357, R2, 370.37 nM), 97560; in the test with Colo-357 cells (Colo-357, R2, 1111.11 nM), 70040. Besides, the ATP luminescence signal in the test with Colo-357 cells (Colo-357, R2, 3333.33 nM) stood at 80720; in the test with Colo-357 cells (Colo-357, R2, 10000 nM) it was 83360. The Curve bottom is on record as 0.03 with Colo-357 cells (Colo-357, GEM curve fit); 0.69 in the test on PANC-1 cells (PANC-1, GEM curve fit); 0.16 in the test with Capan-1 cells (Capan-1, GEM curve fit). Further, the Curve effect size is listed as 0.97 with Colo-357 cells (Colo-357, GEM curve fit); 0.31 in the test with PANC-1 cells (PANC-1, GEM curve fit); 0.84 with Capan-1 cells (Capan-1, GEM curve fit). Moreover, the Curve slope is 3.24 in the test with Colo-357 cells (Colo-357, GEM curve fit); 1.11 with PANC-1 cells (PANC-1, GEM curve fit); 1.86 in the test with Capan-1 cells (Capan-1, GEM curve fit). The Curve top with Colo-357 cells (Colo-357, GEM curve fit) worked out at 0.97; with PANC-1 cells (PANC-1, GEM curve fit), 1.01; in the test on Capan-1 cells (Capan-1, GEM curve fit), 1.03. Also, the AUC in the test with Colo-357 cells (Colo-357, GEM curve fit, in %) is 20.82; in the test with PANC-1 cells (PANC-1, GEM curve fit) it was 85.88; with Capan-1 cells (Capan-1, GEM curve fit, in %) it was 31.71. In addition, the EC50 with Colo-357 cells (read-out: EC50) was 1.32 nM; in the test with Colo-357 cells (read-out: pEC50 (converted)), 1.32 nM; with PANC-1 cells (Homo sapiens, PANC-1, read-out: EC50,GEM), at least 10 nM; with Capan-1 cells (read-out: EC50) it was 1.26 nM; in the test on Capan-1 cells (read-out: pEC50 (converted)), 1.26 nM. For the same molecule, the Reponse worked out at 5718200 in the test on PANC-1 cells (PANC-1, R1, 13.72 nM); 4879000 in the test on PANC-1 cells (PANC-1, R1, 41.15 nM); 4043760 in the test with PANC-1 cells (PANC-1, R1, 370.37 nM); 3920600 with PANC-1 cells (PANC-1, R1, 1111.11 nM); 3788160 with PANC-1 cells (PANC-1, R1, 3333.33 nM); 3980640 with PANC-1 cells (PANC-1, R1, 10000 nM). In addition, the Reponse in the test with PANC-1 cells (Panc-1, R2, 41.15 nM) turned out to be 5844240; with PANC-1 cells (Panc-1, R2, […] nM), 5369400; in the test with PANC-1 cells (Panc-1, R2, 370.37 nM), 5134080; in the test with PANC-1 cells (Panc-1, R2, 1111.11 nM), 4763640; in the test with PANC-1 cells (Panc-1, R2, 10000 nM), 4614040; in the test with PANC-1 cells (Panc-1, replicate R2, dose 13.72 nM, raw signal) it was 6385680. Besides, the Reponse in the test on Capan-1 cells (Capan-1, R1, 13.72 nM) worked out at 1419520; in the test on Capan-1 cells (Capan-1, R1, 41.15 nM), 1052200; in the test with Capan-1 cells (Capan-1, R1, […] nM) it was 1039880; with Capan-1 cells (Capan-1, R1, 370.37 nM) it was 891520; in the test on Capan-1 cells (Capan-1, R1, 1111.11 nM) it was 819880; with Capan-1 cells (Capan-1, R1, 3333.33 nM) it was 826400. For the same molecule, the Reponse with Capan-1 cells (Capan-1, R1, 10000 nM) is listed as 882520; in the test with Capan-1 cells (Capan-1, R2, 13.72 nM), 1725080; in the test with Capan-1 cells (Capan-1, R2, 41.15 nM), 1554080; in the test on Capan-1 cells (Capan-1, R2, […] nM), 1198840; in the test with Capan-1 cells (Capan-1, R2, 370.37 nM) it was 1201400; in the test with Capan-1 cells (Capan-1, R2, 1111.11 nM), 991280. In addition, the Reponse in the test on Capan-1 cells (Capan-1, R2, 3333.33 nM) was 798760; in the test on Capan-1 cells (Capan-1, R2, 10000 nM), 1054200.

`CCN1CCN(Cc2ccc(Nc3ncc(F)c(-c4cc(F)c5nc(C)n(C(C)C)c5c4)n3)nc2)CC1` [Abemaciclib]: the EC50 is over 10000 nM with Dan-G, over 10000 nM in the test with FAMPAC and 250 nM with Suit2-07.

Take `C[C@@H]1COCCN1c1cc(-c2ccnn2C)c2ccnc(-c3ccn[nH]3)c2n1` [Elimusertib]: in the test with HuP-T4, the EC50 turned out to be 359 nM.
